Format in all cases: in vivo
Assay [1] relates to Alopecurus myosuroides. Put plainly: Pre-emergence herbicidal activity against ALOMY. The settings on record: Alopecurus myosuroides, 504 h, dosage 80 g/ha, scored visually after about 3 weeks vs untreated controls. From the text:
(§1) 1. Pre-emergence herbicidal action against harmful plants and crop plant compatibility Seeds of monocotyledonous and dicotyledonous weed plants and crop plants are placed in plastic or wood fiber pots and covered with soil. The compounds of the invention, formulated in the form of wettable powders (WP) or as emulsion concentrates (EC), are then applied onto the surface of the covering soil as aqueous suspension or emulsion with addition of 0.5% additive at a water application rate of 600 l/ha (converted). After the treatment, the pots are placed in a greenhouse and kept under good growth conditions for the trial plants. After about 3 weeks, the effect of the preparations is scored visually in comparison with untreated controls as percentages. For example, 100% activity=the plants have died, 0% activity=like control plants. [table]

Assay [2] relates to Avena fatua. Put plainly: Pre-emergence herbicidal activity against AVEFA. The settings on record: Avena fatua, 504 h, dosage 80 g/ha, scored visually after about 3 weeks vs untreated controls, read-out: Pre-emergence herbicidal activity in % against AVEVA (AVEFA).
Description: as §1

Assay [3] has as its system Echinochloa crus-galli. Kind of assay: Pre-emergence herbicidal activity against ECHCG. Particulars: Echinochloa crus-galli, 504 h, dosage 80 g/ha, scored visually after about 3 weeks vs untreated controls.
Description: as §1

Assay [4] concerns Lolium rigidum. Kind of assay: Pre-emergence herbicidal activity against LOLRI. The settings on record: Lolium rigidum, 504 h, dosage 80 g/ha, scored visually after about 3 weeks vs untreated controls.
Description: as §1

Assay [5] concerns Setaria viridis. Kind of assay: Pre-emergence herbicidal activity against SETVI. Particulars: Setaria viridis, 504 h, dosage 80 g/ha, scored visually after about 3 weeks vs untreated controls.
Description: as §1

Assay [6] deals with Amaranthus retroflexus. Put plainly: Pre-emergence herbicidal activity against AMARE. Particulars: Amaranthus retroflexus, 504 h, dosage 80 g/ha, scored visually after about 3 weeks vs untreated controls.
Description: as §1

Assay [7] deals with Polygonum convolvulus. Put plainly: Pre-emergence herbicidal activity against POLCO. Particulars: Fallopia convolvulus, 504 h, dosage 80 g/ha, scored visually after about 3 weeks vs untreated controls.
Description: as §1

Assay [8] has as its system Stellaria media. Put plainly: Pre-emergence herbicidal activity against STEME. The settings on record: Stellaria media, 504 h, dosage 80 g/ha, scored visually after about 3 weeks vs untreated controls.
Description: as §1

For assay [9], the system named is Viola tricolor. Kind of assay: Pre-emergence herbicidal activity against VIOTR. The settings on record: Viola tricolor, 504 h, dosage 80 g/ha, scored visually after about 3 weeks vs untreated controls.
Description: as §1

Assay [10] has as its system Veronica persica. Put plainly: Pre-emergence herbicidal activity against VERPE. The settings on record: Veronica persica, 504 h, dosage 80 g/ha.
Description: as §1

The test system of assay [11] is Hordeum murinum. Put plainly: Pre-emergence herbicidal activity against HORMU. The settings on record: Hordeum murinum, 504 h, dosage 80 g/ha.
Description: as §1

Assay [12] has as its system Alopecurus myosuroides. Put plainly: Post-emergence herbicidal activity against ALOMY. The settings on record: Alopecurus myosuroides, 504 h, dosage 320 g/ha, rated visually after about 3 weeks. The protocol: (§2) [table] Seeds of monocotyledonous and dicotyledonous weeds and crop plants are placed in sandy loam in plastic or wood-fiber pots, covered with soil and cultivated in a greenhouse under controlled growth conditions. 2 to 3 weeks after sowing, the test plants are treated at the one-leaf stage. The compounds of the invention, formulated in the form of wettable powders (WP) or as emulsion concentrates (EC), are then sprayed onto the green parts of the plants as aqueous suspension or emulsion with addition of 0.5% additive at a water application rate of 600 l/ha (converted). After the test plants had been kept in the greenhouse under optimum growth conditions for about 3 weeks, the activity of the preparations is rated visually in comparison to untreated controls. For example, 100% activity=the plants have died, 0% activity=like control plants.

Assay [13] relates to Avena fatua. Kind of assay: Post-emergence herbicidal activity against AVEFA. Particulars: Avena fatua, 504 h, dosage 320 g/ha, rated visually after about 3 weeks. Here is the method: as §2
The subject of assay [14] is Echinochloa crus-galli. Put plainly: Post-emergence herbicidal activity against ECHCG. Particulars: Echinochloa crus-galli, 504 h, dosage 320 g/ha, rated visually after about 3 weeks. The protocol: as §2
For assay [15], the system named is Lolium rigidum. Put plainly: Post-emergence herbicidal activity against LOLRI. Particulars: Lolium rigidum, 504 h, dosage 320 g/ha, rated visually after about 3 weeks. Here is the method:
as §2

The subject of assay [16] is Setaria viridis. Kind of assay: Post-emergence herbicidal activity against SETVI. The settings on record: Setaria viridis, 504 h, dosage 320 g/ha, rated visually after about 3 weeks. The protocol:
as §2

In the next assay the test system is Abutilon theophrasti. Put plainly: Post-emergence herbicidal activity against ABUTH. The settings on record: Abutilon theophrasti, 504 h, dosage 320 g/ha, rated visually after about 3 weeks. The protocol: as §2
The next assay concerns Pharbitis purpurea. Put plainly: Post-emergence herbicidal activity against PHBPU. Particulars: Ipomoea purpurea, 504 h, dosage 320 g/ha, rated visually after about 3 weeks. The protocol:
as §2

Assay [17] relates to Polygonum convolvulus. Kind of assay: Post-emergence herbicidal activity against POLCO. Particulars: Fallopia convolvulus, 504 h, dosage 320 g/ha, rated visually after about 3 weeks. Here is the method: as §2
For assay [18], the system named is Stellaria media. Kind of assay: Post-emergence herbicidal activity against STEME. The settings on record: Stellaria media, 504 h, dosage 320 g/ha, rated visually after about 3 weeks. Here is the method: as §2
Assay [19] has as its system Viola tricolor. Put plainly: Post-emergence herbicidal activity against VIOTR. The settings on record: Viola tricolor, 504 h, dosage 320 g/ha, rated visually after about 3 weeks. The protocol: as §2
Assay [20] relates to Veronica persica. Put plainly: Post-emergence herbicidal activity against VERPE. The settings on record: Veronica persica, 504 h, dosage 320 g/ha, rated visually after about 3 weeks. Here is the method: as §2
The subject of assay [21] is Hordeum murinum. Kind of assay: Post-emergence herbicidal activity against HORMU. The settings on record: Hordeum murinum, 504 h, dosage 320 g/ha, rated visually after about 3 weeks. The protocol:
as §2

Assay [22] in a line: Pre-emergence herbicidal action against harmful plants (summary of the tables). Particulars: 504 h, application rate of 0.08 kg of active substance or less per hectare, read-out: herbicidal action, pre-emergence treatment (very good activity).
Description: as §1, with “plants.” for “plants. [table]”
As shown by the results, compounds according to the invention such as, for example, the compounds No. I-02 and other compounds from the tables (I-05, I-10, I-11, I-12, I-13, I-14, I-15, I-16, I-17, I-18, I-19, I-20, I-21, I-22, I-23, I-24, I-25, I-26, I-27, I-28, I-29) have, when used for pre-emergence treatment, very good activity (80% to 100% herbicidal action) against harmful plants such as Abutilon theophrasti, Alopecurus myosuroides, Amaranthus retroflexus, Avena fatua, Cyperus esculentus, Echinochloa crus-galli, Hordeum murinum, Lolium rigidum, Pharbitis purpurea, Polygonum convolvulus, Setaria viridis, Stellaria media, Veronica persica and Viola tricolor at an application rate of 0.08 kg of active substance or less per hectare.

Assay [23] concerns Amaranthus retroflexus. Put plainly: Post-emergence herbicidal activity against AMARE. The settings on record: Amaranthus retroflexus, 504 h, dosage 320 g/ha, rated visually after about 3 weeks. Here is the method:
as §2

SMILES strings stand for the structures.

The values that follow come from patent US11613522B2, “Herbicidally active 3-phenylisoxazoline-5-carboxamides of tetrahydro- and dihydrofurancarboxamides” (BAYER AKTIENGESELLSCHAFT, priority 2017, dated 2023).

Take `C=C[C@]1(C(=O)N[C@@H]2CO[C@H](C(=O)NN(C)C)C2)CC(c2cc(F)cc(F)c2)=NO1` (mixture of isomers) [Example I-15, (5S)-3-(3,5-difluorophenyl)-N-[cis-5-(dimethylaminocarbamoyl)tetrahydrofuran-3-yl]-5-vinyl-4H-isoxazole-5-carboxamide]: the pest or weed control at 80 g/ha in the assay with Alopecurus myosuroides [1] was found to be 100%; in the assay on Avena fatua [2] it was 90%; in the assay on Echinochloa crus-galli [3], 90%; with Lolium rigidum [4], 100%; in the assay with Setaria viridis [5] it was 100%; with Amaranthus retroflexus [6], 100%. The pest or weed control at 80 g/ha in the assay with Polygonum convolvulus [7] is 100%; in the assay with Stellaria media [8], 100%; in the assay with Viola tricolor [9], 100%; with Veronica persica [10], 100%; in the assay with Hordeum murinum [11], 90%; in [22] it was 80 to 100%. Further, the pest or weed control at 320 g/ha came out at 100% with Alopecurus myosuroides [12]; 100% with Avena fatua [13]; 90% with Echinochloa crus-galli [14]; 90% in the assay with Lolium rigidum [15]; 80% in the assay on Setaria viridis [16]; 80% in the assay with Abutilon theophrasti. The pest or weed control at 320 g/ha with Pharbitis purpurea was 80%; in the assay on Polygonum convolvulus [17], 90%; in the assay on Stellaria media [18] it was 90%; in the assay on Viola tricolor [19], 80%; in the assay on Veronica persica [20], 80%; with Hordeum murinum [21], 90%.
Take `C=C[C@]1(C(=O)N[C@H]2CO[C@@H](C(=O)NNC(=O)OC(C)(C)C)C2)CC(c2cc(F)cc(F)c2)=NO1` (mixture of isomers) [Example I-19, tert-butyl N-[[cis-4-[[(5S)-3-(3,5-difluorophenyl)-5-vinyl-4H-isoxazole-5-carbonyl]amino]tetrahydrofuran-2-carbonyl]amino]carbamate]: the pest or weed control at 80 g/ha stood at 90% in the assay on Avena fatua [2]; 80% in the assay on Echinochloa crus-galli [3]; 100% with Lolium rigidum [4]; 90% with Setaria viridis [5]; 90% in the assay on Polygonum convolvulus [7]; 90% with Stellaria media [8]. Moreover, the values for the pest or weed control at 80 g/ha (with Viola tricolor [9]; with Hordeum murinum [11]; in assay [22]) were 80%, 100% and 80 to 100%, respectively. The pest or weed control at 320 g/ha with Alopecurus myosuroides [12], with Avena fatua [13], in the assay on Echinochloa crus-galli [14], with Lolium rigidum [15], with Setaria viridis [16] and with Abutilon theophrasti was 90% each time. The pest or weed control at 320 g/ha was determined as 90% with Amaranthus retroflexus [23]; 90% with Pharbitis purpurea; 90% in the assay with Polygonum convolvulus [17]; 90% with Stellaria media [18]; 90% in the assay on Viola tricolor [19]; 80% in the assay on Veronica persica [20]. The compound further displayed a pest or weed control at 320 g/ha in the assay with Hordeum murinum [21] of 90%.
On to `CONC(=O)[C@@H]1C[C@H](NC(=O)C2(C)CC(c3cccc(F)c3)=NO2)CO1` (relative stereo) [Example I-10, 3-(3-fluorophenyl)-N-[cis-5-(methoxycarbamoyl)tetrahydrofuran-3-yl]-5-methyl-4H-isoxazole-5-carboxamide], for which the pest or weed control at 80 g/ha with Alopecurus myosuroides [1] came out at 100%; with Avena fatua [2], 80%; in the assay with Echinochloa crus-galli [3], 80%; in the assay with Lolium rigidum [4], 100%; in the assay with Setaria viridis [5], 90%; in the assay with Amaranthus retroflexus [6], 90%. Besides, the pest or weed control at 80 g/ha with Polygonum convolvulus [7] is 90%; in the assay on Stellaria media [8], 90%; in the assay on Hordeum murinum [11] it was 100%; in assay [22], 80 to 100%. Also, the pest or weed control at 320 g/ha in the assay with Alopecurus myosuroides [12] is 100%; in the assay on Avena fatua [13], 90%; with Echinochloa crus-galli [14], 90%; with Lolium rigidum [15], 90%; in the assay with Setaria viridis [16] it was 90%; in the assay on Amaranthus retroflexus [23], 80%. In addition, the pest or weed control at 320 g/ha was determined as 90% in the assay on Pharbitis purpurea, 80% in the assay on Stellaria media [18], 80% in the assay with Veronica persica [20] and 90% with Hordeum murinum [21].
